Experimental data from patent US20250230193A1, “CYCLIC COMPOUND HAVING SELECTIVE KRAS INHIBITORY EFFECT ON HRAS AND NRAS” (CHUGAI SEIYAKU KABUSHIKI KAISHA, priority 2022, published 2025).
Where a SMILES comes first, the peptide text is derived from it. Bridges are numbered along the chain shown (N, C = ends). [ ]: non-standard residue; d: D form. The star is where a group is joined. hPhe(3,5-F2-4-CF3) = N[C@@H](CCc1cc(F)c(C(F)(F)F)c(F)c1)C(=O)O; NPrPhe(4-CF3) = CCCN[C@@H](Cc1ccc(C(F)(F)F)cc1)C(=O)O; NMeGly(cPent) = CN[C@H](C(=O)O)C1CCCC1; αMeCha = C[C@](N)(CC1CCCCC1)C(=O)O; NMeD = CN[C@@H](CC(=O)O)C(=O)O; Ac4c(3-oxa) = NC1(C(=O)O)COC1; NMeL = CN[C@@H](CC(C)C)C(=O)O; αMeL = CC(C)C[C@](C)(N)C(=O)O; αMeS = C[C@](N)(CO)C(=O)O; Morpholide = C1CN(*)CCO1; Sar = CNCC(=O)O; tBu = CC(C)(C)*; Allyl = C=CC*

What was measured:
[1] = molecular target: GDP-bound NRAS wild-type protein (Homo sapiens, UniProt P01111); assay: Binding to NRAS by surface plasmon resonance (SPR), Single Cycle Kinetics; details: KD ratio NRAS/KRAS, SPR
[2] = molecular target: GDP-bound HRAS wild-type protein (Homo sapiens, UniProt P01112); assay: Binding to HRAS by surface plasmon resonance (SPR), Single Cycle Kinetics; details: KD ratio HRAS/KRAS, SPR
Chain of GDP-bound HRAS wild-type protein (P01112 whole entry): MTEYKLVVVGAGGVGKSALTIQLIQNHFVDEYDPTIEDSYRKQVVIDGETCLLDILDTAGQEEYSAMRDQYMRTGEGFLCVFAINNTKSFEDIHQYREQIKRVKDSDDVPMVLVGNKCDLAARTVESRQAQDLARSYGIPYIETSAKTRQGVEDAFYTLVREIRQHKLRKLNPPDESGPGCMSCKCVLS

Chain of GDP-bound NRAS wild-type protein (P01111 whole entry): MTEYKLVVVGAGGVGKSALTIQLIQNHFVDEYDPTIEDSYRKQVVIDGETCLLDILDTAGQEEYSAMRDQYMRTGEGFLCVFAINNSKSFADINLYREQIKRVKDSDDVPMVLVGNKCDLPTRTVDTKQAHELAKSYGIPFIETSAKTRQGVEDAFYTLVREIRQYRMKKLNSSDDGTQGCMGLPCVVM

| SMILES | NRAS/KRAS (ratio of KD value with respect to GDP-bound NRAS wild-type protein to KD value with respect to KRAS) [1] | HRAS/KRAS (ratio of KD value with respect to GDP-bound HRAS wild-type protein to KD value with respect to KRAS) [2] |
| --- | --- | --- |
| CCCN1C(=O)CN(C)C(=O)CN(C)C(=O)[C@H]([C@@H](C)CC)NC(=O)[C@H](CC(C)C)N(C)C(=O)C[C@@H](C(=O)N2CCOCC2)N(C)C(=O)[C@H](C2CCCC2)N(C)C(=O)[C@](C)(CC(C)C)NC(=O)[C@@H]2CCCN2C(=O)[C@H](CCc2cc(F)c(C(F)(F)F)c(F)c2)NC(=O)CN(C)C(=O)[C@@H]1Cc1ccc(C(F)(F)F)cc1 [PP0759] ([NMeL]I[Sar][Sar][NPrPhe(4-CF3)][Sar][hPhe(3,5-F2-4-CF3)]P[αMeL][NMeGly(cPent)][NMeD]-Morpholide; lactam N-11) | B (a compound having 3 or more and less than 10 is denoted as B) | B (a compound having 3 or more and less than 10 is denoted as B) |
| CCCN1C(=O)CN(C)C(=O)CN(C)C(=O)[C@H]([C@@H](C)CC)NC(=O)[C@H](CC(C)C)N(C)C(=O)C[C@@H](C(=O)N2CCOCC2)N(C)C(=O)[C@H](C2CCCC2)N(C)C(=O)[C@](C)(CC2CCCCC2)NC(=O)[C@@H]2CCCN2C(=O)[C@H](CCc2cc(F)c(C(F)(F)F)c(F)c2)NC(=O)CN(C)C(=O)[C@@H]1Cc1ccc(C(F)(F)F)cc1 [PP0760] ([NMeL]I[Sar][Sar][NPrPhe(4-CF3)][Sar][hPhe(3,5-F2-4-CF3)]P[αMeCha][NMeGly(cPent)][NMeD]-Morpholide; lactam N-11) | B (a compound having 3 or more and less than 10 is denoted as B) | C (A compound having a KD ratio of 0.1 or more and less than 3 is denoted as C) |
| CCCN1C(=O)CN(C)C(=O)CN(C)C(=O)[C@H]([C@@H](C)CC)NC(=O)[C@H](CC(C)C)N(C)C(=O)C[C@@H](C(=O)N2CCOCC2)N(C)C(=O)[C@H](C2CCCC2)N(C)C(=O)[C@](C)(COC)NC(=O)[C@@H]2CCCN2C(=O)[C@H](CCc2cc(F)c(C(F)(F)F)c(F)c2)NC(=O)CN(C)C(=O)[C@@H]1Cc1ccc(C(F)(F)F)cc1 [PP0762] ([NMeL]I[Sar][Sar][NPrPhe(4-CF3)][Sar][hPhe(3,5-F2-4-CF3)]P[αMeS](Me)[NMeGly(cPent)][NMeD]-Morpholide; lactam N-11) | B (a compound having 3 or more and less than 10 is denoted as B) | B (a compound having 3 or more and less than 10 is denoted as B) |
| C=CCOC[C@]1(C)NC(=O)[C@@H]2CCCN2C(=O)[C@H](CCc2cc(F)c(C(F)(F)F)c(F)c2)NC(=O)CN(C)C(=O)[C@H](Cc2ccc(C(F)(F)F)cc2)N(CCC)C(=O)CN(C)C(=O)CN(C)C(=O)[C@H]([C@@H](C)CC)NC(=O)[C@H](CC(C)C)N(C)C(=O)C[C@@H](C(=O)N2CCOCC2)N(C)C(=O)[C@H](C2CCCC2)N(C)C1=O [PP0763] ([NMeL]I[Sar][Sar][NPrPhe(4-CF3)][Sar][hPhe(3,5-F2-4-CF3)]P[αMeS](Allyl)[NMeGly(cPent)][NMeD]-Morpholide; lactam N-11) | B (a compound having 3 or more and less than 10 is denoted as B) | B (a compound having 3 or more and less than 10 is denoted as B) |
| CCCN1C(=O)CN(C)C(=O)CN(C)C(=O)[C@H]([C@@H](C)CC)NC(=O)[C@H](CC(C)C)N(C)C(=O)C[C@@H](C(=O)N2CCOCC2)N(C)C(=O)[C@H](C2CCCC2)N(C)C(=O)[C@](C)(COC(C)(C)C)NC(=O)[C@@H]2CCCN2C(=O)[C@H](CCc2cc(F)c(C(F)(F)F)c(F)c2)NC(=O)CN(C)C(=O)[C@@H]1Cc1ccc(C(F)(F)F)cc1 [PP0764] ([NMeL]I[Sar][Sar][NPrPhe(4-CF3)][Sar][hPhe(3,5-F2-4-CF3)]P[αMeS](tBu)[NMeGly(cPent)][NMeD]-Morpholide; lactam N-11) | B (a compound having 3 or more and less than 10 is denoted as B) | B (a compound having 3 or more and less than 10 is denoted as B) |
| CCCN1C(=O)CN(C)C(=O)CN(C)C(=O)[C@H]([C@@H](C)CC)NC(=O)[C@H](CC(C)C)N(C)C(=O)C[C@@H](C(=O)N2CCOCC2)N(C)C(=O)[C@H](C2CCCC2)N(C)C(=O)C2(COC2)NC(=O)[C@@H]2CCCN2C(=O)[C@H](CCc2cc(F)c(C(F)(F)F)c(F)c2)NC(=O)CN(C)C(=O)[C@@H]1Cc1ccc(C(F)(F)F)cc1 [PP0765] ([NMeL]I[Sar][Sar][NPrPhe(4-CF3)][Sar][hPhe(3,5-F2-4-CF3)]P[Ac4c(3-oxa)][NMeGly(cPent)][NMeD]-Morpholide; lactam N-11) | B (a compound having 3 or more and less than 10 is denoted as B) | C (A compound having a KD ratio of 0.1 or more and less than 3 is denoted as C) |
